Assay results reported in patent US10933056B2, “3-(1H-pyrazol-4-yl)pyridine allosteric modulators of the M4 muscarinic acetylcholine receptor” (Merck Sharp & Dohme Corp., priority 2015, dated 2021).

Molecular target: T1, human M4 muscarinic acetylcholine receptor (Homo sapiens, UniProt P08173)
T1 construct: expressed in transfected cells; host or cells: CHO-K1
T1 sequence (P08173 1-479): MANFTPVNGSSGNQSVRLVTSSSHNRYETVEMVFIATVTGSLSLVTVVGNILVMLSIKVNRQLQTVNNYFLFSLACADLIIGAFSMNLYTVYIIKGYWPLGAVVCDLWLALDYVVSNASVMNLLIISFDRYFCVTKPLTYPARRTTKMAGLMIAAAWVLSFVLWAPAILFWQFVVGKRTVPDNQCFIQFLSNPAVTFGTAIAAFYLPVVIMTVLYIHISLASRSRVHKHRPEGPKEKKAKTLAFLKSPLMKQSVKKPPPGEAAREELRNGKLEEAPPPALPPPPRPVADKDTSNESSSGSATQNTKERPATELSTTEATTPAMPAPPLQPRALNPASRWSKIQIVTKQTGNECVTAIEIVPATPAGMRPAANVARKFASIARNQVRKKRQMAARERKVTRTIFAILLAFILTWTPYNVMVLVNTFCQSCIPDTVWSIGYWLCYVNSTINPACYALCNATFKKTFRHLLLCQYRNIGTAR
Experiment: human FLIPR-based M4 PAM assay (calcium mobilization in CHO-K1 cells with human M4 receptor and Gαqi5)
Assay type: cell-based
Conditions: inflection point of dose response curve, acetylcholine at 20% of maximum response, FLIPR Tetra, read-out: M4 PAM IP
Procedure: (§1) In a typical experiment the M4 muscarinic acetylcholine receptor modulating activity of the compounds of the present invention was determined in accordance with the following experimental method. CHO-K1 cells stably transfected with human M4 receptor and chimeric G-protein Gαqi5 (Coward P, et al., Analytical Biochemistry, 270:242-248 (1999)) are thawed from liquid N2 storage, resuspended in growth medium, plated in black, clear bottom 384 well plates, and incubated 16-20 hours at 37° C., 5% CO2. On the day of assay, growth medium is removed, the cells are washed 2 times with wash buffer, and cells are incubated in dye loading buffer at 37° C., 5% CO2 for ˜1 hour. Following dye loading the cell plates are placed in a FLIPR Tetra instrument and while monitoring dye fluorescence (excitation […]), 10 uL of test substance at increasing concentrations is added, and fluorescence values are recorded for 4 min. Next, 10 uL of acetylcholine is added (final concentration calculated so as to achieve 20% of the maximum acetycholine response), and the fluorescence reading is continued for 3.5 min. In some cases, a third addition of acetylcholine (final concentration calculated to achieve 70% of the maximal acetylcholine response) is performed. The resulting dose response curves are fit to a 4 parameter logistic equation and the final result is determined as the inflection point (IP) of the curve
as §1, with “CHO-K1” for “In a typical experiment the M4 muscarinic acetylcholine receptor modulating activity of the compounds of the present invention was determined in accordance with the following experimental method. CHO-K1”, “Gαqi5” for “Gαqi5 (Coward P, et al., Analytical Biochemistry, 270:242-248 (1999))”, “performed.” for “performed. The resulting dose response curves are fit to a 4 parameter logistic equation and the final result is determined as the inflection point (IP) of the curve”

Compound | EC50
CC1(Cn2cc(-c3cc4c(nc3-c3cnc5c(c3)C(=O)N(CC3CC3)C5)[C@H](F)CC4)cn2)CCCC1 (single isomer, unassigned) [Example 1A] | 67 nM
CC1(Cn2cc(-c3cc4c(nc3-c3cnc5c(c3)C(=O)N(CC3CC3)C5)[C@@H](F)CC4)cn2)CCCC1 (single isomer, unassigned) [Example 1B] | 75 nM
Cc1cc(-c2cnn(CC3(C)CCCC3)c2)c(-c2cnc3c(c2)C(=O)N(C)C3)nc1F [Example 1, 3-(6-Fluoro-5-methyl-3-(1-((1-methylcyclopentyl)methyl)-1H-pyrazol-4-yl)pyridin-2-yl)-6-methyl-6,7-dihydro-5H-pyrrolo[3,4-b]pyridin-5-one] | 39 nM
CN1Cc2ccc(-c3nc(C#N)ccc3-c3cnn(CC4(C)CCCC4)c3)cc2C1=O [Example 2, 6-(2-Methyl-3-oxoisoindolin-5-yl)-5-(1-((1-methylcyclopentyl)methyl)-1H-pyrazol-4-yl)picolinonitrile] | 16 nM
Cc1ccc(-c2cnn(CC3CCCC3)c2)c(-c2ccc3c(c2)C(=O)N(CC2CC2)C3)n1 [Example 3, 6-(3-(1-(cyclopentylmethyl)-1H-pyrazol-4-yl)-6-methylpyridin-2-yl)-2-(cyclopropylmethyl)isoindolin-1-one] | 38 nM
Cc1ccc(-c2cnn(CC3CCCC3)c2)c(-c2ccc3c(c2)C(=O)N(CCc2ccccc2)C3)n1 [Example 4, 6-(3-(1-(cyclopentylmethyl)-1H-pyrazol-4-yl)-6-methylpyridin-2-yl)-2-phenethylisoindolin-1-one] | 37 nM
Cc1ccc(-c2cnn(CC3CCCC3)c2)c(-c2ccc3c(c2)C(=O)N(CC2CCCO2)C3)n1 (stereo not shown) [Example 5, 6-(3-(1-(cyclopentylmethyl)-1H-pyrazol-4-yl)-6-methylpyridin-2-yl)-2-((tetrahydrofuran-2-yl)methyl)isoindolin-1-one] | 20 nM
Cc1ccc(-c2cnn(CC3CCCC3)c2)c(-c2ccc3c(c2)C(=O)N(C2CC2)C3)n1 [Example 6, 6-(3-(1-(cyclopentylmethyl)-1H-pyrazol-4-yl)-6-methylpyridin-2-yl)-2-cyclopropylisoindolin-1-one] | 20 nM
O=C1c2cc(-c3nccc(F)c3-c3cnn(CC4CCCC4)c3)ccc2CN1CC1CC1 [Example 7, 6-(3-(1-(cyclopentylmethyl)-1H-pyrazol-4-yl)-4-fluoropyridin-2-yl)-2-(cyclopropylmethyl)isoindolin-1-one] | 22 nM
O=C1c2cc(-c3ncccc3-c3cnn(CC4CCCC4)c3F)ccc2CN1CC1CC1 [Example 8, 6-(3-(1-(cyclopentylmethyl)-5-fluoro-1H-pyrazol-4-yl)pyridin-2-yl)-2-(cyclopropylmethyl)isoindolin-1-one] | 142 nM
Cc1ccc(-c2cnn(CC3CCCC3)c2F)c(-c2ccc3c(c2)C(=O)N(CC2CC2)C3)n1 [Example 9, 6-(3-(1-(cyclopentylmethyl)-5-fluoro-1H-pyrazol-4-yl)-6-methylpyridin-2-yl)-2-(cyclopropylmethyl)isoindolin-1-one] | 12 nM
CC1(Cn2cc(-c3cc4c(nc3-c3cnc5c(c3)C(=O)N(CC3CC3)C5)CCC4)cn2)CCCC1 [Example 10, 6-(cyclopropylmethyl)-3-(3-(1-((1-methylcyclopentyl)methyl)-1H-pyrazol-4-yl)-6,7-dihydro-5H-cyclopenta[b]pyridin-2-yl)-6,7-dihydro-5H-pyrrolo[3,4-b]pyridin-5-one] | 54 nM
CN1Cc2ccc(-c3nc(C#N)ccc3-c3cnn(CC4CCCC4)c3)cc2C1=O [Example 11, 5-(1-(cyclopentylmethyl)-1H-pyrazol-4-yl)-6-(2-methyl-3-oxoisoindolin-5-yl)picolinonitrile] | 11 nM
CNC(=O)c1ccc(-c2cnn(CC3CCCC3)c2)c(-c2ccc3c(c2)C(=O)N(CC2CC2)C3)n1 [Example 12, 5-(1-(cyclopentylmethyl)-1H-pyrazol-4-yl)-6-(2-(cyclopropylmethyl)-3-oxoisoindolin-5-yl)-N-methylpicolinamide] | 348 nM
CNC(=O)c1ccc(-c2cnn(CC3CCCC3)c2)c(-c2ccc3c(c2)C(=O)N(C2CC2)C3)n1 [Example 13, 5-(1-(cyclopentylmethyl)-1H-pyrazol-4-yl)-6-(2-cyclopropyl-3-oxoisoindolin-5-yl)-N-methylpicolinamide] | 613 nM
CNC(=O)c1ccc(-c2cnn(CC3CCCC3)c2)c(-c2ccc3c(c2)C(=O)N(C)C3)n1 [Example 14, 5-(1-(cyclopentylmethyl)-1H-pyrazol-4-yl)-N-methyl-6-(2-methyl-3-oxoisoindolin-5-yl)picolinamide] | 687 nM
NC(=O)c1ccc(-c2cnn(CC3CCCC3)c2)c(-c2ccc3c(c2)C(=O)N(CC2CC2)C3)n1 [Example 15, 5-(1-(cyclopentylmethyl)-1H-pyrazol-4-yl)-6-(2-(cyclopropylmethyl)-3-oxoisoindolin-5-yl)picolinamide] | 94 nM
NC(=O)c1ccc(-c2cnn(CC3CCCC3)c2)c(-c2ccc3c(c2)C(=O)N(C2CC2)C3)n1 [Example 16, 5-(1-(cyclopentylmethyl)-1H-pyrazol-4-yl)-6-(2-cyclopropyl-3-oxoisoindolin-5-yl)picolinamide] | 297 nM
CN1Cc2ccc(-c3nc(C(N)=O)ccc3-c3cnn(CC4CCCC4)c3)cc2C1=O [Example 17, 5-(1-(cyclopentylmethyl)-1H-pyrazol-4-yl)-6-(2-methyl-3-oxoisoindolin-5-yl)picolinamide] | 278 nM
N#Cc1ccc(-c2cnn(CC3CCCC3)c2)c(-c2ccc3c(c2)C(=O)N(CC2CC2)C3)n1 [Example 18, 5-(1-(cyclopentylmethyl)-1H-pyrazol-4-yl)-6-(2-(cyclopropylmethyl)-3-oxoisoindolin-5-yl)picolinonitrile] | 8 nM
N#Cc1ccc(-c2cnn(CC3CCCC3)c2)c(-c2ccc3c(c2)C(=O)N(C2CC2)C3)n1 [Example 19, 5-(1-(cyclopentylmethyl)-1H-pyrazol-4-yl)-6-(2-cyclopropyl-3-oxoisoindolin-5-yl)picolinonitrile] | 9 nM
N#Cc1ccc(-c2cnn(CC3CCCC3)c2)c(-c2ccc3c(c2)C(=O)NC3)n1 [Example 20, 5-(1-(cyclopentylmethyl)-1H-pyrazol-4-yl)-6-(3-oxoisoindolin-5-yl)picolinonitrile] | 9 nM
O=C1c2cc(-c3nc(F)ccc3-c3cnn(CC4CCCC4)c3)ccc2CN1CC1CC1 [Example 21, 6-(3-(1-(cyclopentylmethyl)-1H-pyrazol-4-yl)-6-fluoropyridin-2-yl)-2-(cyclopropylmethyl)isoindolin-1-one] | 22 nM
CN1Cc2ccc(-c3nc(F)ccc3-c3cnn(CC4CCCC4)c3)cc2C1=O [Example 22, 6-(3-(1-(cyclopentylmethyl)-1H-pyrazol-4-yl)-6-fluoropyridin-2-yl)-2-methylisoindolin-1-one] | 28 nM
O=C1c2cc(-c3nc(F)ccc3-c3cnn(CC4CCCC4)c3)ccc2CN1C1CC1 [Example 23, 6-(3-(1-(cyclopentylmethyl)-1H-pyrazol-4-yl)-6-fluoropyridin-2-yl)-2-cyclopropylisoindolin-1-one] | 34 nM
CC1(Cn2cc(-c3cccnc3-c3ccc4c(c3)C(=O)NC4)cn2)CCCC1 [Example 24, 6-(3-(1-((1-methylcyclopentyl)methyl)-1H-pyrazol-4-yl)pyridin-2-yl)isoindolin-1-one] | 20 nM
CN1Cc2ccc(-c3ncccc3-c3cnn(CC4(C)CCCC4)c3)cc2C1=O [Example 25, 2-methyl-6-(3-(1-((1-methylcyclopentyl)methyl)-1H-pyrazol-4-yl)pyridin-2-yl)isoindolin-1-one] | 21 nM
CC1(Cn2cc(-c3cccnc3-c3ccc4c(c3)C(=O)N(C3CC3)C4)cn2)CCCC1 [Example 26, 2-cyclopropyl-6-(3-(1-((1-methylcyclopentyl)methyl)-1H-pyrazol-4-yl)pyridin-2-yl)isoindolin-1-one] | 32 nM
